Laboratory results: ChEMBL document CHEMBL4665642, “Anticancer profile of newly synthesized BRAF inhibitors possess 5-(pyrimidin-4-yl)imidazo[2,1-b]thiazole scaffold” (Bioorg Med Chem, 2019)

Assays:
[1] = target: RAF proto-oncogene serine/threonine-protein kinase (Homo sapiens, UniProt P04049); assay: Inhibition of human CRAF using MEK1 as substrate by [gamma-33P]-ATP assay
[2] = target: Serine/threonine-protein kinase B-raf (Homo sapiens, UniProt P15056, V600E); assay: Inhibition of human BRAF V600E mutant using MEK1 as substrate by […] assay
Sequence of Serine/threonine-protein kinase B-raf (Homo sapiens, UniProt P15056, V600E) (P15056 2-766 V600E limits assumed): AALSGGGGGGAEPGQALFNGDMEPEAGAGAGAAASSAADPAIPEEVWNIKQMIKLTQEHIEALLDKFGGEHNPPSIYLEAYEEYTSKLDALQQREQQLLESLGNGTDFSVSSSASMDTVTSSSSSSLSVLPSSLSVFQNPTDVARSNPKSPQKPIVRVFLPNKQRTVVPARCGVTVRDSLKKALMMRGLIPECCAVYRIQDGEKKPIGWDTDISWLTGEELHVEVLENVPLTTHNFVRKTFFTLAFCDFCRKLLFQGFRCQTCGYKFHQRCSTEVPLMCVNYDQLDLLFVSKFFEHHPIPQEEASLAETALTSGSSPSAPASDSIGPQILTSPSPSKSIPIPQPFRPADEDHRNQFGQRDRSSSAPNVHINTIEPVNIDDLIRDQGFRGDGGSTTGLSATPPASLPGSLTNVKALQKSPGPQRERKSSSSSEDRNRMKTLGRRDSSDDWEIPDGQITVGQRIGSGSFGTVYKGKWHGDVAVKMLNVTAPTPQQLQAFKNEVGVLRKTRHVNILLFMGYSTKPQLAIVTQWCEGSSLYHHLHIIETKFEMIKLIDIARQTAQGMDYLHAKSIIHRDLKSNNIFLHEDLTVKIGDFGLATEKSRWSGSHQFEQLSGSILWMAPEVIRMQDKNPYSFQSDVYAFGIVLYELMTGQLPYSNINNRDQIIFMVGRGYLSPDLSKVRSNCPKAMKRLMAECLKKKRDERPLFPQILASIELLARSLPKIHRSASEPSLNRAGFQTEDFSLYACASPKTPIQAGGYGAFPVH

[3] = target: Serine/threonine-protein kinase B-raf (Homo sapiens, UniProt P15056); assay: Inhibition of human BRAF using MEK1 as substrate by […] assay
Sequence of Serine/threonine-protein kinase B-raf (Homo sapiens, UniProt P15056) (P15056 whole entry): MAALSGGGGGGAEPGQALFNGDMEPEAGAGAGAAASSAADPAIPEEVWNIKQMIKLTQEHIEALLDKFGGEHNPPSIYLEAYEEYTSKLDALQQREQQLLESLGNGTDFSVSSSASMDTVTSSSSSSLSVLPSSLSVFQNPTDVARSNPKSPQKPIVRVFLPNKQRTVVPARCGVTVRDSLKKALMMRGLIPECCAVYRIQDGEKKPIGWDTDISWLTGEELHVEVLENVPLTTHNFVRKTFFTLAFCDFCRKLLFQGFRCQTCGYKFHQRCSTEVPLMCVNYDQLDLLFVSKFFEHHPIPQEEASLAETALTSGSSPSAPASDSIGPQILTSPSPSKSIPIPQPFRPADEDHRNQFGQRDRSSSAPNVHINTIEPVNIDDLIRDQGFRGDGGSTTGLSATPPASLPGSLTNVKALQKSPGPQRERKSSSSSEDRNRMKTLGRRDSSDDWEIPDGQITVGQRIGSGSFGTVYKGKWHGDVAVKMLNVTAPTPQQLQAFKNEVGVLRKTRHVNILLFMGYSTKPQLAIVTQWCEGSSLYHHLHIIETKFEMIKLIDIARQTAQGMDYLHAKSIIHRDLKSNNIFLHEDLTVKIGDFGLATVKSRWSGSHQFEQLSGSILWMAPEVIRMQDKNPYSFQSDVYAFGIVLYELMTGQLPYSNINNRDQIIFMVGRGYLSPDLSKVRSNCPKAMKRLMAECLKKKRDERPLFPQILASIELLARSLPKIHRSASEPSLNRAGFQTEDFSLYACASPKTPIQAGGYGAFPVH

SK-MEL-28 = assay: Cytotoxicity against human SK-MEL-28 cells assessed as reduction in cell viability by MTT assay; type: functional, cell-based
A-375 = assay: Cytotoxicity against human A-375 cells assessed as reduction in cell viability by MTT assay; type: functional, cell-based
MDA-MB-468 = assay: Cytotoxicity against human MDA-MB-468 cells assessed as cell viability at 10 uM incubated for 48 hrs by sulforhodamine B assay relative to control; type: functional; settings: read-out: Activity
CAKI-1 = assay: Cytotoxicity against human CAKI-1 cells assessed as cell viability at 10 uM incubated for 48 hrs by sulforhodamine B assay relative to control; type: functional; settings: read-out: Activity
ACHN = assay: Cytotoxicity against human ACHN cells assessed as cell viability at 10 uM incubated for 48 hrs by sulforhodamine B assay relative to control; type: functional; settings: read-out: Activity
OVCAR-8 = assay: Cytotoxicity against human OVCAR-8 cells assessed as cell viability at 10 uM incubated for 48 hrs by sulforhodamine B assay relative to control; type: functional; settings: read-out: Activity
UACC-257 = assay: Cytotoxicity against human UACC-257 cells assessed as cell viability at 10 uM incubated for 48 hrs by sulforhodamine B assay relative to control; type: functional; settings: read-out: Activity
SK-MEL-2 = assay: Cytotoxicity against human SK-MEL-2 cells assessed as cell viability at 10 uM incubated for 48 hrs by sulforhodamine B assay relative to control; type: functional; settings: read-out: Activity
MDA-MB-435 = assay: Cytotoxicity against human MDA-MB-435 cells assessed as cell viability at 10 uM incubated for 48 hrs by sulforhodamine B assay relative to control; type: functional; settings: read-out: Activity
CCRF-CEM = assay: Cytotoxicity against human CCRF-CEM cells assessed as cell viability at 10 uM incubated for 48 hrs by sulforhodamine B assay relative to control; type: functional; settings: read-out: Activity
SR = assay: Cytotoxicity against human SR cells assessed as cell viability at 10 uM incubated for 48 hrs by sulforhodamine B assay relative to control; type: functional; settings: read-out: Activity
EKVX = assay: Cytotoxicity against human EKVX cells assessed as cell viability at 10 uM incubated for 48 hrs by sulforhodamine B assay relative to control; type: functional; settings: read-out: Activity
NCI-H23 = assay: Cytotoxicity against human NCI-H23 cells assessed as cell viability at 10 uM incubated for 48 hrs by sulforhodamine B assay relative to control; type: functional; settings: read-out: Activity
NCI-H322M = assay: Cytotoxicity against human NCI-H322M cells assessed as cell viability at 10 uM incubated for 48 hrs by sulforhodamine B assay relative to control; type: functional; settings: read-out: Activity
NCI-H522 = assay: Cytotoxicity against human NCI-H522 cells assessed as cell viability at 10 uM incubated for 48 hrs by sulforhodamine B assay relative to control; type: functional; settings: read-out: Activity
HCC 2998 = assay: Cytotoxicity against human HCC 2998 cells assessed as cell viability at 10 uM incubated for 48 hrs by sulforhodamine B assay relative to control; type: functional; settings: read-out: Activity
HCT-116 = assay: Cytotoxicity against human HCT-116 cells assessed as cell viability at 10 uM incubated for 48 hrs by sulforhodamine B assay relative to control; type: functional; settings: read-out: Activity
SF-295 = assay: Cytotoxicity against human SF-295 cells assessed as cell viability at 10 uM incubated for 48 hrs by sulforhodamine B assay relative to control; type: functional; settings: read-out: Activity
U-251 = assay: Cytotoxicity against human U-251 cells assessed as cell viability at 10 uM incubated for 48 hrs by sulforhodamine B assay relative to control; type: functional; settings: read-out: Activity
LOX IMVI = assay: Cytotoxicity against human LOX IMVI cells assessed as cell viability at 10 uM incubated for 48 hrs by sulforhodamine B assay relative to control; type: functional; settings: read-out: Activity
L132 = assay: Cytotoxicity against human L132 cells assessed as reduction in cell viability by MTT assay; type: cell-based

Sequence of RAF proto-oncogene serine/threonine-protein kinase (P04049 whole entry): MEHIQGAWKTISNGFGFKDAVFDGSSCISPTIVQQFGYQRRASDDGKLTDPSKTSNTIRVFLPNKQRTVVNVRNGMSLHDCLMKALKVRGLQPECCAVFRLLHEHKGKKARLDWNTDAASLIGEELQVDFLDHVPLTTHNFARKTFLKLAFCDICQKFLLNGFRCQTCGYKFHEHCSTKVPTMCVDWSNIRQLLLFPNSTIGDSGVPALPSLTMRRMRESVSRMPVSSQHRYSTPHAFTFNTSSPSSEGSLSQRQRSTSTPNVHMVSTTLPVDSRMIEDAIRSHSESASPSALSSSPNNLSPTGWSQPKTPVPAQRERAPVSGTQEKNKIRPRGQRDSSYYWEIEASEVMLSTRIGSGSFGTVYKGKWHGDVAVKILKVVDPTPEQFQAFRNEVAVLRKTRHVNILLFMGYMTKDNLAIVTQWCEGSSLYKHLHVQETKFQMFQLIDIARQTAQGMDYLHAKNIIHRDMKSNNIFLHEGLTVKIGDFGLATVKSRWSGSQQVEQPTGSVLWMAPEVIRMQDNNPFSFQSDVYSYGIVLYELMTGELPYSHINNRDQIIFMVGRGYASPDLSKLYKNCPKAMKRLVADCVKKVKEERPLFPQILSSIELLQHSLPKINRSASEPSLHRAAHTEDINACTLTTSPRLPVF

## Cc1ccc(S(=O)(=O)NCCCNc2nccc(-c3c(-c4cccc(F)c4)nc4sccn34)n2)cc1
[1]
  IC50: 0.143 µM
[2]
  IC50: 0.089 µM
[3]
  IC50: 0.182 µM
SK-MEL-28
  IC50: 9.5 µM
A-375
  IC50: 8.38 µM
MDA-MB-468
  viability at 10 µM: 78.2%
CAKI-1
  viability at 10 µM: 46.9%
ACHN
  viability at 10 µM: 65.5%
OVCAR-8
  viability at 10 µM: 60.3%
UACC-257
  viability at 10 µM: 121%
SK-MEL-2
  viability at 10 µM: 86.1%
MDA-MB-435
  viability at 10 µM: 48.8%
CCRF-CEM
  viability at 10 µM: 62.7%
SR
  viability at 10 µM: 102%
EKVX
  viability at 10 µM: 78.1%
NCI-H23
  viability at 10 µM: 96.2%
NCI-H322M
  viability at 10 µM: 89.6%
NCI-H522
  viability at 10 µM: 70.8%
HCC 2998
  viability at 10 µM: 98.2%
HCT-116
  viability at 10 µM: 49.6%
SF-295
  viability at 10 µM: 84.1%
U-251
  viability at 10 µM: 82.2%
LOX IMVI
  viability at 10 µM: 38%

## O=S(=O)(NCCNc1nccc(-c2c(-c3cccc(F)c3)nc3sccn23)n1)c1ccc(C(F)(F)F)cc1
[1]
  IC50: 0.0884 µM
[2]
  IC50: 0.0223 µM
[3]
  IC50: 0.0852 µM
SK-MEL-28
  IC50: 8.45 µM
A-375
  IC50: 7.44 µM
MDA-MB-468
  viability at 10 µM: 71.3%
CAKI-1
  viability at 10 µM: 70.6%
ACHN
  viability at 10 µM: 82.2%
OVCAR-8
  viability at 10 µM: 84.1%
UACC-257
  viability at 10 µM: 109%
SK-MEL-2
  viability at 10 µM: 98.8%
MDA-MB-435
  viability at 10 µM: 71.2%
CCRF-CEM
  viability at 10 µM: 80.6%
SR
  viability at 10 µM: 89.4%
EKVX
  viability at 10 µM: 86.5%
NCI-H23
  viability at 10 µM: 86.8%
NCI-H322M
  viability at 10 µM: 96.5%
NCI-H522
  viability at 10 µM: 85%
HCC 2998
  viability at 10 µM: 111%
HCT-116
  viability at 10 µM: 67.8%
SF-295
  viability at 10 µM: 107%
U-251
  viability at 10 µM: 89.8%
LOX IMVI
  viability at 10 µM: 88.9%

## O=C(NCCNc1nccc(-c2c(-c3cccc(F)c3)nc3sccn23)n1)c1c(F)cccc1F
[1]
  IC50: 0.102 µM
[2]
  IC50: 0.0331 µM
[3]
  IC50: 0.0953 µM
L132
  IC50: 198 µM
SK-MEL-28
  IC50: 11.4 µM
A-375
  IC50: 2.7 µM
MDA-MB-468
  viability at 10 µM: 54.3%
CAKI-1
  viability at 10 µM: 34.5%
ACHN
  viability at 10 µM: 26%
OVCAR-8
  viability at 10 µM: 44.2%
UACC-257
  viability at 10 µM: 54.7%
SK-MEL-2
  viability at 10 µM: 62.4%
MDA-MB-435
  viability at 10 µM: 17.4%
CCRF-CEM
  viability at 10 µM: 42.8%
SR
  viability at 10 µM: 26%
EKVX
  viability at 10 µM: 61.2%
NCI-H23
  viability at 10 µM: 61.9%
NCI-H322M
  viability at 10 µM: 57.5%
NCI-H522
  viability at 10 µM: 42.8%
HCC 2998
  viability at 10 µM: 70.4%
HCT-116
  viability at 10 µM: 24.9%
SF-295
  viability at 10 µM: 66.8%
U-251
  viability at 10 µM: 49.7%
LOX IMVI
  viability at 10 µM: 32.4%

## O=S(=O)(NCCCNc1nccc(-c2c(-c3cccc(F)c3)nc3sccn23)n1)c1ccc(Br)cc1
[1]
  IC50: 0.0186 µM
[2]
  IC50: 0.0093 µM
[3]
  IC50: 0.0229 µM
SK-MEL-28
  IC50: 9.4 µM
A-375
  IC50: 7.04 µM
MDA-MB-468
  viability at 10 µM: 32.3%
CAKI-1
  viability at 10 µM: 50.3%
ACHN
  viability at 10 µM: 50.3%
OVCAR-8
  viability at 10 µM: 28%
UACC-257
  viability at 10 µM: 62.4%
SK-MEL-2
  viability at 10 µM: 61.4%
MDA-MB-435
  viability at 10 µM: 31.6%
CCRF-CEM
  viability at 10 µM: 36.8%
SR
  viability at 10 µM: 78.1%
EKVX
  viability at 10 µM: 57.4%
NCI-H23
  viability at 10 µM: 57.4%
NCI-H322M
  viability at 10 µM: 81%
NCI-H522
  viability at 10 µM: 37.9%
HCC 2998
  viability at 10 µM: 96.9%
HCT-116
  viability at 10 µM: 46.2%
SF-295
  viability at 10 µM: 64.2%
U-251
  viability at 10 µM: 76.7%
LOX IMVI
  viability at 10 µM: 40.2%

## O=S(=O)(NCCCNc1nccc(-c2c(-c3cccc(F)c3)nc3sccn23)n1)c1ccc(Cl)cc1
[1]
  IC50: 0.034 µM
[2]
  IC50: 0.0162 µM
[3]
  IC50: 0.0496 µM
SK-MEL-28
  IC50: 8.45 µM
A-375
  IC50: 5.9 µM
MDA-MB-468
  viability at 10 µM: 63.6%
CAKI-1
  viability at 10 µM: 63%
ACHN
  viability at 10 µM: 60%
OVCAR-8
  viability at 10 µM: 50.2%
UACC-257
  viability at 10 µM: 103%
SK-MEL-2
  viability at 10 µM: 79.9%
MDA-MB-435
  viability at 10 µM: 53.1%
CCRF-CEM
  viability at 10 µM: 46.6%
SR
  viability at 10 µM: 92.9%
EKVX
  viability at 10 µM: 75.4%
NCI-H23
  viability at 10 µM: 86%
NCI-H322M
  viability at 10 µM: 93.2%
NCI-H522
  viability at 10 µM: 57.4%
HCC 2998
  viability at 10 µM: 123%
HCT-116
  viability at 10 µM: 64%
SF-295
  viability at 10 µM: 87.1%
U-251
  viability at 10 µM: 90.2%
LOX IMVI
  viability at 10 µM: 60.3%
